Measurements from US20240293500A1, “PEPTIDE HAVING ANTICANCER ACTIVITY, AND USE THEREOF” (Korea University Research and Business Foundation, priority 2021, published 2024).

Legend:
[1] = tested on: extracellular signal-regulated kinase (ERK) protein; experiment: p-ERK level by Western blot; format: cell-based; conditions: MDA-MB-231, 1 μM peptide, 24 hours, vs control (FIG. 7)
Experimental: In addition, the change in phosphorylation of extracellular signal-regulated kinase (ERK) protein caused by an anticancer peptide was confirmed. ERK gene is an indicator of drug resistance and inhibition of the growth and apoptosis of cancer cells. The MDA-MB-231 cells were cultured and treated with 1 μM of a peptide (No. 1 or 2). After 24 hours, proteins were isolated from the cells, and a p-ERK level was confirmed by Western blot.

[2] = tested on: MDA-MB-231 triple-negative breast cancer cell line; experiment: MTT assay, co-treatment of peptide with anticancer agent; format: cell-based; conditions: for cell proliferation on co-treatment with paclitaxel compared to paclitaxel alone: MDA-MB-231, 1 μM peptide + 5.4 nM paclitaxel (FIGS. 3 and 4)
Experimental: To confirm the cytotoxic and anti-proliferative effect of a peptide discovered in the present invention on cancer cells and normal cells, a 3-(4,5-diemthylthiazolyl-2)-2,5-diphenyltetrazolium bromide (MTT) assay was performed. The MTT assay is a method of measuring the growth of living cells and measuring cell viability using MTT reduction by mitochondrial reductase in living cells.
In addition, peptides and anticancer agents were administered together to the MDA-MB-231 triple-negative breast cancer cell line to explore effects associated with drug co-administration and drug resistance. Triple-negative (ER−/PR−/HER2−) breast cancer is a type of breast cancer that is difficult to treat because it is known to have drug resistance to existing hormone therapy and anticancer drugs, and is a suitable model for research on drug resistance and co-administration.
Cell viability was evaluated by an MTT assay by treating MDA-MB-231 cells with 1 μM of the peptide (No. 1 or 2), and 9 μM abemaciclib or 5.4 nM paclitaxel.

[3] = tested on: matrix metallopeptidase 9 (MMP-9); experiment: MMP-9 expression by RT-PCR; format: cell-based; conditions: MDA-MB-231, 1 μM peptide, 24 hours, vs control (FIG. 6)
Experimental: MDA-MB-231 cells were cultured and treated with 1 μM of a peptide (No. 1 or 2). After 24 hours, RNA was isolated from the cells and the expression level of matrix metallopeptidase 9 (MMP-9), which is a key cell migration factor, was confirmed through RT-PCR.

[4] = tested on: MDA-MB-231 xenograft tumor; experiment: Xenograft tumor model, tumor size; format: in vivo, BALB/c nude mice; conditions: 2.5 mg/kg intraperitoneally daily, 6 weeks, vs PBS control (FIG. 9)
Experimental: A xenograft tumor model was constructed by injecting MDA-MB-231 cells into immunodeficient BALB/c nude mice and forming tumors for 1 week. Mice with tumors were randomly divided into a control and an experimental group. The control and the experimental group were intraperitoneally injected daily with PBS (the same volume as a peptide) and the No. 1 peptide (2.5 mg/kg), respectively, and then observed for a total of 6 weeks. During the experimental period, a tumor size was measured with a digital caliper every week, and the final tumor size was compared at week 6.

lamin B1 protein = experiment: Lamin B1 cleavage by western blotting (apoptosis marker); format: cell-based; conditions: MDA-MB-231, 1 μM peptide, 24 hours, nuclear fraction western blotting (FIG. 8)
Experimental: Next, to confirm the relationship between the anticancer peptide and apoptosis, the degree of cleavage of lamin B1 protein was confirmed. Lamin B1 is originally a type of nuclear protein that is degraded by caspase in apoptosis and used as a biomarker of apoptosis. The MDA-MB-231 cells were cultured and treated with 1 μM of a peptide (No. 1 or 2). After 24 hours, the cells were washed with PBS twice, and lysed with lysis buffer containing NP-40. The nucleus and cytoplasm were separated by centrifugation, and western blotting was performed on each nuclear and cytoplasmic fraction. Here, to determine the degree of separation of the nucleus and cytoplasm, α-tubulin, which is a cytoplasmic marker, and lamin B1 were simultaneously analyzed.

Row | Sequence | p-ERK level [1] | cell proliferation on co-treatment with paclitaxel compared to paclitaxel alone [2] | expression of MMP-9 [3] | tumor growth (tumor size) [4] | cleavage of lamin B1 protein (lamin B1 protein) | cell proliferation on co-treatment with abemaciclib compared to abemaciclib alone ([2]; MDA-MB-231, 1 μM peptide + 9 μM abemaciclib (FIG. 4))
1 | EKAEEDRYFR (listed as Mus musculus) [No. 1] | significantly reduced | further inhibited | significantly reduced | significant tumor growth inhibitory effect | cleaved | –
2 | EQAEEERYFR (listed as Homo sapiens) [No. 2] | significantly reduced | further inhibited | significantly reduced | – | cleaved | further inhibited
